Entries after “also recorded” stand apart in the source; their conditions may differ.
Key:
mice [1] = assay: Quantitative EEG, cortical oscillation power; type: in vivo; conditions: NBQX before (2R,6R)-HNK
Experimental: EEG experiments were performed according to Raver et al., (Neuropsychopharmacology, 38, 2338-2347 (2013)) with minor modifications. Mice were anesthetized with isoflurane and kept under anesthesia throughout the surgery. An F20-EET radio-telemetric transmitter (Data Sciences International, Minneapolis, Minn.) was implanted subcutaneously and its leads implanted over the dura above the frontal cortex (1.7 mm anterior to bregma) and the cerebellum (6.4 mm posterior to bregma). Animals recovered from surgery for 7 days before recordings.
Mice were singly housed and acclimated to the behavioral room for 24 hours prior to EEG recordings. EEGs were recorded using the Dataquest A.R.T. acquisition system (Data Sciences International) with frontal EEG recordings referenced to the cerebellum. Baseline EEG (10 min) recordings were followed by an i.p. injection of saline, ketamine (10 mg/kg) or (2R,6R)-HNK (10 mg/kg) and 40 min of post-injection recordings.
ECoGs were analyzed using custom-written MATLAB scripts (Version 2012a, Mathworks, Mass.) and the mtspecgramc routine in the Chronux Toolbox (http://chronux.org; Mitra and Bokil, 2008). Oscillation power in each bandwidth (δ=1-3 Hz; θ=4-7 Hz; α=8-12 Hz; β=13-29 Hz; γ=30-80 Hz) was computed in 10 min bins from spectrograms for each animal.

male CD-1 mice [2] = assay: Forced-swim test (FST); type: in vivo; conditions: for antidepressant effect in the FST (immobility time): i.p.
Source text: (§1) Male CD-1 mice (8-10 weeks old, Charles River Laboratories, Mass., USA) were housed in groups of four-five per cage with a constant 12-hour light/dark cycle (lights on/off at 07:00/19:00). Food and water were available ad libitum. Mice acclimatized to the new environment for seven days prior to the start of the experiments. For the whole-cell NMDA current electrophysiological recordings, male Sprague-Dawley rats (housed three per cage; Charles River, Wilmington, Mass.) were used. EPSC recording were done from rats at postnatal day 24-25. All experimental procedures were approved by the University of Maryland, Baltimore Animal Care and Use Committee and were conducted in full accordance with the National Institutes of Health Guide for the Care and Use of Laboratory Animals.
Mice were tested in the FST 1 hour and/or 24 hours post-injection. During the FST, mice were subjected to a 6-min swim session in clear Plexiglass cylinders (30 cm height×20 cm diameter) filled with 15 cm of water (23±1° C.). The FST was performed in normal light conditions (800 Lux). Sessions were recorded using a digital video-camera. Immobility time, defined as passive floating with no additional activity other than that necessary to keep the animal's head above water, was scored for the last 4 min of the 6-min test by a trained observer blind to the treatment.
All drugs were dissolved in 0.9% saline, and administered intraperitoneally (i.p.) in a volume of 7.5 ml/kg of body mass. Corticosterone (4-pregnen-11β, 21-diol-3, 20-dione 21-hemisuccinate; Steraloids, Newport, R.I., USA) was dissolved in tap water. For the electrophysiology recordings, test drugs were diluted in artificial cerebrospinal fluid (AC SF).

mice [3] = assay: Drug discrimination in ketamine-trained mice; type: in vivo; conditions: for ketamine-associated discriminative stimulus: mice trained to discriminate ketamine (10 mg/kg) from saline
Experimental: Mice were food restricted until they reached 85% of their initial body weight and were maintained at 85% throughout the duration of the experiment Animals were trained to lever press for food (20 mg sucrose pellets; TestDiet, St. Luis, Mo., USA) in standard two lever-operant conditioning chambers (Coulbourn Instruments, Whitehall, Pa., USA), under a fixed-ratio 5 of reinforcement (FR5) in daily 30-min sessions. When stable responding was succeeded over 3 consecutive sessions (average of 40 training sessions), mice were trained to discriminate ketamine (10 mg/kg) from saline (7.5 ml/kg) under a double alternation schedule (e.g., ketamine, ketamine, saline, saline). The subjects received either ketamine (10 mg/kg; i.p.) or saline (7.5 ml/kg) 15 minutes prior to the start of the 30-minute session. […] Drug discrimination test sessions were conducted when mice reached the following criteria: (1) first FR5 completed on the correct lever, and (2)≥85% correct lever responding over the entire session. During the test sessions mice were administered with saline (7.5 ml/kg), ketamine (10 mg/kg), phencyclidine (PCP; 3 mg/kg) or (2R,6R)-HNK (10 and 50 mg/kg). […] Recording of responses and pellet delivery were controlled and calculated by an automated computer system (Graphic State v3.1; Coulbourn Instruments, Whitehall, Pa., USA).

Male C57BL/6J mice = assay: Chronic social defeat stress and social interaction/avoidance test; type: in vivo; conditions: single i.p. injection, re-test 24 hours following treatment
Experimental: Male C57BL/6J mice underwent a 10-day chronic social defeat stress paradigm. Briefly, experimental mice were introduced to the home cage (43 cm length×11 cm width×20 cm height) of a resident aggressive retired CD-1 breeder, prescreened for aggressive behaviors, for 10 min. Following this physical attack phase, mice were transferred and housed in the opposite side of the resident's cage divided by a Plexiglas perforated divider, in order to maintain continuous sensory contact. This process was repeated for 10 days. Experimental mice were introduced to a novel aggressive CD-1 mouse each day. On day 11, test mice were screened for susceptibility in a social interaction/avoidance choice test. The social interaction apparatus consisted of a rectangular three-chambered box (mouse conditioned-place preference chamber; Stoelting Co., Wood Dale, Ill., USA), see FIG. 7b) comprised of two equal sized end-chambers and a smaller central chamber. The social interaction/avoidance choice test consisted of two 5-min phases. During the habituation phase, mice explored the empty apparatus. During the test phase, two small wire cages (Galaxy Cup, Spectrum Diversified Designs, Inc., Streetsboro, Ohio, USA), one containing a “stranger” CD-1 mouse and the other one empty, were placed in the far corners of each chamber. The time spent interacting (nose within close proximity of the cage) with the “stranger” mouse versus the empty cage was analysed using TopScan video tracking software (CleverSys, Reston, Va.). Locomotor activity (total distance moved over 5 min) and number of total crosses into and out of the central chamber were also measured. The social interaction ratio was calculated by dividing the time spent interacting with the “stranger” by the time spent with the empty cage. Mice having a social interaction ratio higher than 1.0 were considered resilient and mice with a social interaction ratio lower than 1.0 were considered susceptible. On day 13 resilient and susceptible mice received an i.p. injection of either saline, (R,S)-KET (20 mg/kg; chosen based upon dose previously effective in C57BL/6J mice^31), MK-801 (0.1 mg/kg) or (2R,6R)-HNK (20 mg/kg). Mice were re-tested for social interaction/avoidance on […] (24 hours following treatment).

[4] = Tissue distribution of ketamine and metabolites (plasma and brain levels)
Experimental: Mice were euthanized by a 30-sec exposure to 3% isoflurane and decapitated at 10, 30, 60, 240 or 480 minutes following drug administration. Trunk blood was collected in EDTA-containing tubes and centrifuged at 8000 rpm for 6 min (4° C.). Plasma was collected and stored at −80° C. until analysis. Whole brains were simultaneously collected, rinsed with phosphate-buffered saline, immediately frozen in dry ice and stored at −80° C. until analysis.
The concentrations of ketamine and its metabolites in plasma and brain tissue were determined by achiral liquid chromatography-tandem mass spectrometry. For plasma samples, the calibration standards for (R,S)-ketamine, (R,S)-norketamine, (2R,6R;2S,6S)-HNK and (R,S)-DHNK ranged from 10,000 ng/ml to 19 ng/ml. The quantification of (R,S)-ketamine, (R,S)-norketamine, (R,S)-DHNK, and the HNK stereoisomers was accomplished by calculating area ratios using D4-ketamine (10 μl of 10 μg/ml solution) as the internal standard. Whole brains were suspended in 990 μl of water:methanol (3:2, v/v), D4-ketamine (10 μl of 10 μg/ml) added and the resulting mixture homogenized on ice with a polytron homogenizer and centrifuged at 21,000×g for 30 min. The supernatant was collected and processed using 1 ml Oasis HLB solid phase extraction cartridges (Waters Corp., Waltham, Mass.). The cartridges were preconditioned with 1 ml of methanol, followed by 1 ml of water and then 1 ml ammonium acetate [10 mM, pH 9.5]. The supernatants were added to the cartridges, followed by 1 ml of water and the compounds were eluted with 1 ml of methanol. The eluent was transferred to an autosampler vial for analysis. QC standards for the analysis of (R,S)-ketamine, (R,S)-norketamine, (R,S)-DHNK and (2R,6R;2S,6S)-HNK ranged from 10,000 ng/ml to 19 ng/ml, and quantification was accomplished using D4-(R,S)-ketamine as the internal standard. QC standards were prepared daily by adding 10 μl of the appropriate standard solution and 10 μl of internal standard solution (100 ng/ml) to methanol.

male CD-1 mice [5] = assay: Learned helplessness (LH); type: in vivo; conditions: single injection, test 24 hours after administration
Source text: as §1
The LH paradigm consisted of three different phases, i.e., inescapable shock training, LH screening, and the LH test. For the inescapable shock portion of the test (Day 1), the animals were placed in one side of two-chambered shuttle boxes (34 cm height×37 cm width×18 cm depth; Coulbourn Instruments, PA, USA), with the door between the chambers closed. Following a five-min adaptation period, 120 inescapable foot-shocks (0.45 mA, 15 sec duration, randomized average inter-shock interval of 45 sec) were delivered through the grid floor. During the screening session (Day 2), the mice were placed in one of the two chambers of the apparatus for 5 min. A shock (0.45 mA) was then delivered, and the door between the two chambers was raised simultaneously. Crossing over into the second chamber terminated the shock. […] A total of 30 screening trials of escapable shocks were presented to each mouse with an average of 30 sec delay between each trial. Mice that developed helplessness behavior (>5 escape failures during the last 10 screening shocks) were administered with the respective drug 24 hours following screening (Day 3). During the LH test phase (Day 4), the animals were placed in the shuttle boxes and, after a 5-min adaptation period, a 0.45 mA shock was delivered concomitantly with door opening for the first five trials, followed by a 2-sec delay for the next 40 trials. Crossing over to the second chamber terminated the shock. […] A total of 45 trials of escapable shock were presented to each mouse with 30 sec inter-trial intervals. The number of escape failures was recorded for each mouse.

mice [6] = assay: Open field test (locomotor activity); type: in vivo; conditions: 1 hour after i.p. drug, Hydrochloride
Experimental: Mice were placed into individual open-field arenas (50 cm length×50 cm width×38 cm height; San Diego Instruments, San Diego, Calif., USA) for a 60-min habituation period. Mice were then injected with the respective drug and assessed for locomotor activity for another 60 min. Distance travelled was analyzed using TopScan v2.0 (CleverSys, Inc, Reston, Va., USA).

[7] = 24 hours post-injection (sustained)

## NS(=O)(=O)c1cccc2c1c([N+](=O)[O-])cc1[nH]c(=O)c(=O)[nH]c12 [NBQX, 2,3-dihydroxy-6-nitro-7-sulfamoyl-benzo[f]quinoxaline-2,3-dione]
Mice [1]
  effect of NBQX pre-treatment on (2R,6R)-HNK-induced increases in gamma oscillations: prevented (2R,6R)-HNK-induced increases in gamma power; also recorded: prevented (2R,6R)-HNK-induced increases of gamma oscillations
  effect of NBQX pre-treatment on locomotor activity and alpha, beta, delta, theta oscillations: did not change
Male CD-1 mice [2]; NBQX 10 minutes prior to (R,S)-ketamine or (2R,6R)-HNK, FST 1 hour or 24 hours later
  effect of NBQX pre-treatment on antidepressant-like actions in the FST: prevented their antidepressant-like actions; also recorded: prevented both the 1- and 24-hour antidepressant effects of (2R,6R)-HNK
Male CD-1 mice [2]; NBQX 30 min prior to the 24-hour FST (23.5 hours after ketamine or (2R,6R)-HNK)
  effect of NBQX given before the 24-hour FST on antidepressant effects: prevented the antidepressant actions of both ketamine and (2R,6R)-HNK; also recorded: prevented the antidepressant effects of both (R,S)-KET and (2R,6R)-HNK

## c1ccc(C2(N3CCCCC3)CCCCC2)cc1 [phencyclidine, reference compound]
Mice [3]; drug discrimination paradigm
  response rate of overall lever pressing per sec: not changed
Mice [3]
  ketamine-associated discriminative stimulus: did
Mice [3]; listed as PCP
  ketamine-associated discriminative stimulus: produced ketamine-like discriminative properties

## C[C@]12N[C@H](Cc3ccccc31)c1ccccc12 [MK-801]
Male C57BL/6J mice
  reversal of social interaction deficits / social avoidance induced by chronic social defeat stress: does not exert sustained (24-hour) antidepressant-like effects in the FST, or reverse social interaction deficits
Male CD-1 mice [2]; 1 hour post-injection (acute)
  antidepressant effect in the FST (immobility time): antidepressant responses of both ketamine and MK-801 observed acutely
Male CD-1 mice [2]; [7]
  antidepressant effect in the FST (immobility time): does not exert sustained (24-hour) antidepressant-like effects

## NC1(c2ccccc2Cl)CCCCC1=O (racemic) [norketamine, (R,S)-norketamine]
[4]; brain
  brain levels following ketamine administration, female mice compared to males: equivalent levels

## Cl.[2H]C1([2H])CCCC(NC)(c2ccccc2Cl)C1=O (centres unmarked) [6,6-dideuteroketamine, 2-(2-Chlorophenyl)-6,6-Dideutero-2-(Methylamino)Cyclohexanone Hydrochloride]
Male CD-1 mice [5]
  antidepressant-like effect in learned helplessness (escape failures): did not induce antidepressant actions
Mice [6]
  locomotor activity in the open-field test: did not change or NMDA-mediated hyperlocomotion
Mice [6]; listed as (R,S)-6,6-dideuteroketamine
  locomotor activity in the open-field test: equally potent in inducing a hyper-locomotor response
[4]; 6,6-dideuteroketamine compared to ketamine
  levels of ketamine in the brain: without changes to the levels of ketamine in the brain
Male CD-1 mice [2]; [7]
  antidepressant effect in the FST (immobility time): did not induce antidepressant actions

## CNCCCN1c2ccccc2CCc2ccccc21 [desipramine]
Male CD-1 mice [2]; 1- and 24-hours post-injection, times not separated
  antidepressant effect in the FST (immobility time): only decreased immobility time 1 hour post-injection

— US20190083420A1, “METHODS OF USING (2R, 6R)-HYDROXYN[…] (2S, 6S)-HYDROXYN[…] THE TREATMENT OF DEPRESSION, ANXIETY, ANHEDONIA, FATIGUE, SUICIDAL IDEATION, AND POST TRAUMATIC STRESS DISORDERS” (The Uinited States of America, as represented by the …, priority 2016, published 2019)
